EP0603240B1, “SAFENING HERBICIDAL PYRAZOLYLSULFONYLUREAS” (priority 1991, dated 1993)

Columns and labels:
Type in all cases: in vivo
[1] = tested on: corn; experiment: Example 19, Procedure II: Herbicide No. 1 + ERADICANE EXTRA with added antidotes
Procedure: (§1) Containers were filled and compacted with a fumigated silt loam top soil to a depth of about 1.3 cm from the top of the container. A first container was designated as an untreated control, a second container was designated as a herbicide control, and a third container was designated as a herbicide + antidote test container. Each of the containers was seeded with a crop species. A measured amount of herbicide dispersed or dissolved in acetone was applied to a measured quantity of soil. To this same quantity of soil treated with herbicide, there was added a measured amount of antidote dispersed or dissolved in acetone. The quantity of soil treated with the herbicide and antidote was thoroughly mixed to incorporate the herbicide and antidote in the soil uniformly. The seed bed in the third container of soil was covered with the soil treated with the herbicide and antidote and the container was leveled. For each test series, the seed beds of the first and second containers were likewise covered by soil layers. the cover layer of the first container was not treated with herbicide or antidote.
(§2) The containers were then placed on a bench in a greenhouse and sub-irrigated as required for the duration of the test. […] Plant response is measured in terms of percent injury. Antidote efficacy is indicated as the difference in plant injury by the herbicide(s) without the antidote and with the antidote.
(§3) This procedure is the same as Procedure I, but modified in the manner that after incorporation of the chemicals (herbicide and antidote) the containers with the covered seedbed were treated with an initial overhead irrigation equivalent to 0.6 cm rainfall, then subsequently sub-irrigated as required on greenhouse benches.
(§4) In the test reported in this example, the herbicidal composition was similar to that used in Example 16 in that Herbicide No. 1 was combined with EPTC (Herbicide No. 4) as a co-herbicide and the antidotes included Nos. 1, 2, 7, 13 and 15. However, in this test the EPTC was introduced as a formulation of ERADICANE (EPTC + the antidote R-25788, i.e., Antidote No. 1) at an application rate of 8.96 kg/ha. Thus, in this test two antidotes were present, viz. R-25788 and one of the auxilliary antidotes, No. 2, 13 and 15.
The test reported in this example was performed in the same manner and with the same antidotes used in Example 18, the only difference being the substitution of the commercial herbicidal product ERADICANE® EXTRA for ERADICANE®. ERADICANE EXTRA is a formulation containing both an antidote, i.e., R-29148 (Antidote No. 5 herein), and an extender, dietholate.

[2] = tested on: corn; experiment: Example 22: retest of Example 21 at reduced greenhouse temperatures; conditions: Table 22
Procedure: as §1, §2, §3
(§5) In this example, tests were conducted as in the preceding Examples 18-20, except here the co-herbicidal component was SUTAN® PLUS, a commercial product comprising as the active herbicidal ingredient the compound butylate (Herbicide No. 10) and an antidote […] (Antidote No. 1). Again, the antidotal compounds herein were Nos. 1, 2, 7, 13 and 15. Procedure II was used.
(§6) The experiments in this example were designed as a retest of those described in Example 21 in view of the uncharacteristically poor corn safety and weed control, believed to have resulted from unseasonably high temperatures in the greenhouse. Accordingly, temperatures were reduced for these tests.

[3] = tested on: barnyardgrass (Echinochloa crusgalli); experiment: Example 10, Procedure II: Herbicide No. 1 + propachlor (No. 5) with antidotes
Procedure: as §1, §2, §3
(§7) In the series of greenhouse tests described below, for routine screening purposes the herbicide/antidote compositions were tested in crop/weed combinations involving corn as the crop and either or both of the weeds barnyardgrass (Echinochloa crusgalli), a monocotyledonous weed, and velvetleaf (Abutilon theophrasti), a dicotyledonous weed. In the tables below, these weeds are indicated by the symbols "BYG" and "VL", respectively.
(§8) In this test, the safening effect of various antidotes on the herbicidal combination of Herbicide No. 1 and another α-chloroacetanilide co-herbicide, propachlor, (Herbicide No. 5) was investigated. Propachlor is the active ingredient in the commercial herbicide RAMROD®. Procedure II was also used in this test as in the preceding example.

[4] = tested on: velvetleaf (Abutilon theophrasti); experiment: as above
Procedure: as §1, §2, §3, §7, §8

[5] = tested on: corn; experiment: Example 6, Procedure II: Herbicide No. 1 + alachlor (No. 7) with antidotes
Method in brief: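 Herbicide No. 1 plus alachlor and antidote, each applied in acetone, mixed into silt loam cover soil over seeded corn; untreated and herbicide-only controls included. Given initial overhead irrigation equal to 0.6 cm rainfall, then greenhouse sub-irrigation. Percent injury scored, duplicate averages; efficacy is injury without minus with antidote.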

[6] = tested on: barnyardgrass (Echinochloa crusgalli); experiment: Example 22: retest of Example 21 at reduced greenhouse temperatures; conditions: Table 22
Procedure: as §1, §2, §3, §7, §5, §6

[7] = tested on: velvetleaf (Abutilon theophrasti); experiment: as above; conditions: Table 22
Procedure: as §1, §2, §3, §7, §5, §6

[8] = tested on: barnyardgrass (Echinochloa crusgalli); experiment: Example 18, Procedure II: Herbicide No. 1 + ERADICANE (EPTC + R-25788) with auxiliary antidotes
Procedure: as §1, §2, §3, §7, §4
(§9) Test procedures were those of Procedure II above.

[9] = tested on: velvetleaf (Abutilon theophrasti); experiment: as above
Procedure: as §1, §2, §3, §7, §4, §9

[10] = tested on: barnyardgrass (Echinochloa crusgalli); experiment: Example 7, Procedure II: Herbicide No. 1 + metolachlor (No. 12) with antidotes
Procedure: as §1, §2, §3, §7
In this example, Procedure II described above was followed. The data from the tests in this example is shown in Table 6 and represents averages of duplicate replications.
The tests in this example followed the same procedure and antidotes used in Example 6. However, Herbicide No. 12 (metolachlor) was used as the co-herbicide with Herbicide No. 1.

[11] = Herbicide No.1 0.56 kg/ha + ERADICANE EXTRA 8.96 kg/ha, antidote 2.24 kg/ha
[12] = Herbicide No.1 0.56 kg/ha + ERADICANE EXTRA 8.96 kg/ha, antidote 8.96 kg/ha
[13] = Herbicide No.1 1.12 kg/ha + ERADICANE EXTRA 8.96 kg/ha, antidote 2.24 kg/ha
[14] = Herbicide No.1 1.12 kg/ha + ERADICANE EXTRA 8.96 kg/ha, antidote 8.96 kg/ha
[15] = Herbicide No.1 0.56 Kg/ha + SUTAN + 8.96 Kg/ha + antidote 2.24 Kg/ha
[16] = Herbicide No.1 0.56 Kg/ha + SUTAN + 8.96 Kg/ha + antidote 8.96 Kg/ha
[17] = Herbicide No.1 1.12 Kg/ha + SUTAN + 8.96 Kg/ha + antidote 2.24 Kg/ha
[18] = Herbicide No.1 1.12 Kg/ha + SUTAN + 8.96 Kg/ha + antidote 8.96 Kg/ha
[19] = Herbicide No.1 0.14 kg/ha + Herbicide No.5 4.48 kg/ha, antidote rate 2.24 kg/ha
[20] = Herbicide No.1 0.14 kg/ha + Herbicide No.5 4.48 kg/ha, antidote rate 8.96 kg/ha
[21] = Herbicide No.1 0.56 kg/ha + Herbicide No.5 4.48 kg/ha, antidote rate 2.24 kg/ha
[22] = Herbicide No.1 0.56 kg/ha + Herbicide No.5 4.48 kg/ha, antidote rate 8.96 kg/ha
[23] = Herbicide No.1 0.14 + No.7 4.48 kg/ha + antidote 2.24 kg/ha
[24] = Herbicide No.1 0.14 + No.7 4.48 kg/ha + antidote 8.96 kg/ha
[25] = Herbicide No.1 0.56 + No.7 4.48 kg/ha + antidote 2.24 kg/ha
[26] = Herbicide No.1 0.56 + No.7 4.48 kg/ha + antidote 8.96 kg/ha
[27] = Herbicide No.1 0.56 kg/ha + ERADICANE 8.96 kg/ha, antidote 2.24 kg/ha
[28] = Herbicide No.1 0.56 kg/ha + ERADICANE 8.96 kg/ha, antidote 8.96 kg/ha
[29] = Herbicide No.1 1.12 kg/ha + ERADICANE 8.96 kg/ha, antidote 2.24 kg/ha
[30] = Herbicide No.1 1.12 kg/ha + ERADICANE 8.96 kg/ha, antidote 8.96 kg/ha
[31] = Herbicide No.1 0.14 + No.12 3.36 kg/ha + antidote 2.24 kg/ha
[32] = Herbicide No.1 0.14 + No.12 3.36 kg/ha + antidote 8.96 kg/ha
[33] = Herbicide No.1 0.56 + No.12 3.36 kg/ha + antidote 2.24 kg/ha
[34] = Herbicide No.1 0.56 + No.12 3.36 kg/ha + antidote 8.96 kg/ha

O=C1OC(=O)c2cccc3cccc1c23 [compound 2]
% Injury Corn [1, 11]: 20% | % Injury Corn [1, 12]: 25% | % Injury Corn [1, 13]: 25% | % Injury Corn [1, 14]: 20% | % Injury Corn [2, 15]: 45% | % Injury Corn [2, 16]: 55% | % Injury Corn [2, 17]: 40% | % Injury Corn [2, 18]: 50% | % Injury BYG [3, 19]: 100% | % Injury BYG [3, 20]: 99% | % Injury BYG [3, 21]: 99% | % Injury BYG [3, 22]: 99% | % Injury VL [4, 19]: 60% | % Injury VL [4, 20]: 80% | % Injury VL [4, 21]: 75% | % Injury VL [4, 22]: 80% | % Injury Corn [5, 23]: 0% | % Injury Corn [5, 24]: 15% | % Injury Corn [5, 25]: 10% | % Injury Corn [5, 26]: 15% | % Injury BYG [6, 15]: 80% | % Injury BYG [6, 16]: 90% | % Injury BYG [6, 17]: 85% | % Injury BYG [6, 18]: 90% | % Injury VL [7, 15]: 80% | % Injury VL [7, 16]: 90% | % Injury VL [7, 17]: 93% | % Injury VL [7, 18]: 90% | % Injury BYG [8, 27]: 93% | % Injury BYG [8, 28]: 85% | % Injury BYG [8, 29]: 85% | % Injury BYG [8, 30]: 95% | % Injury VL [9, 27]: 80% | % Injury VL [9, 28]: 93% | % Injury VL [9, 29]: 70% | % Injury VL [9, 30]: 75% | % Injury BYG [10, 31]: 100% | % Injury BYG [10, 32]: 100% | % Injury BYG [10, 33]: 100% | % Injury BYG [10, 34]: 100%

O=C(C(Cl)Cl)N1CCOC12CCCCC2 [compound 7]
% Injury Corn [1, 11]: 15% | % Injury Corn [1, 12]: 20% | % Injury Corn [1, 13]: 25% | % Injury Corn [1, 14]: 25% | % Injury Corn [2, 15]: 45% | % Injury Corn [2, 16]: 50% | % Injury Corn [2, 17]: 65% | % Injury Corn [2, 18]: 50% | % Injury BYG [3, 19]: 99% | % Injury BYG [3, 20]: 98% | % Injury BYG [3, 21]: 98% | % Injury BYG [3, 22]: 96% | % Injury VL [4, 19]: 70% | % Injury VL [4, 20]: 75% | % Injury VL [4, 21]: 95% | % Injury VL [4, 22]: 80% | % Injury Corn [5, 23]: 0% | % Injury Corn [5, 24]: 10% | % Injury Corn [5, 25]: 10% | % Injury Corn [5, 26]: 5% | % Injury BYG [6, 15]: 90% | % Injury BYG [6, 16]: 90% | % Injury BYG [6, 17]: 95% | % Injury BYG [6, 18]: 80% | % Injury VL [7, 15]: 80% | % Injury VL [7, 16]: 75% | % Injury VL [7, 17]: 97% | % Injury VL [7, 18]: 70% | % Injury BYG [8, 27]: 90% | % Injury BYG [8, 28]: 85% | % Injury BYG [8, 29]: 85% | % Injury BYG [8, 30]: 85% | % Injury VL [9, 27]: 75% | % Injury VL [9, 28]: 80% | % Injury VL [9, 29]: 70% | % Injury VL [9, 30]: 75% | % Injury BYG [10, 31]: 100% | % Injury BYG [10, 32]: 100% | % Injury BYG [10, 33]: 100% | % Injury BYG [10, 34]: 100%

CC1(C(Cl)Cl)OCCO1 [compound 13]
% Injury Corn [1, 11]: 25% | % Injury Corn [1, 12]: 15% | % Injury Corn [1, 13]: 20% | % Injury Corn [1, 14]: 15% | % Injury Corn [2, 15]: 70% | % Injury Corn [2, 16]: 60% | % Injury Corn [2, 17]: 75% | % Injury Corn [2, 18]: 60% | % Injury BYG [3, 19]: 98% | % Injury BYG [3, 20]: 97% | % Injury BYG [3, 21]: 99% | % Injury BYG [3, 22]: 98% | % Injury VL [4, 19]: 70% | % Injury VL [4, 20]: 70% | % Injury VL [4, 21]: 80% | % Injury VL [4, 22]: 75% | % Injury Corn [5, 23]: 0% | % Injury Corn [5, 24]: 0% | % Injury Corn [5, 25]: 5% | % Injury Corn [5, 26]: 15% | % Injury BYG [6, 15]: 90% | % Injury BYG [6, 16]: 90% | % Injury BYG [6, 17]: 95% | % Injury BYG [6, 18]: 93% | % Injury VL [7, 15]: 85% | % Injury VL [7, 16]: 95% | % Injury VL [7, 17]: 95% | % Injury VL [7, 18]: 90% | % Injury BYG [8, 27]: 85% | % Injury BYG [8, 28]: 85% | % Injury BYG [8, 29]: 85% | % Injury BYG [8, 30]: 90% | % Injury VL [9, 27]: 80% | % Injury VL [9, 28]: 80% | % Injury VL [9, 29]: 75% | % Injury VL [9, 30]: 75% | % Injury BYG [10, 31]: 100% | % Injury BYG [10, 32]: 100% | % Injury BYG [10, 33]: 100% | % Injury BYG [10, 34]: 100%
